Results as given in paper PMC9527276, “Guanine inhibits the growth of human glioma and melanoma cell lines by interacting with GPR23” (Frontiers in Pharmacology, 2022).

Target: T1, GPR23 (Homo sapiens, UniProt Q99677)
T1 construct: gene LPAR4; native receptor in U87 glioma cell membranes; control vs GPR23-siRNA silenced
Test: [3H]-guanine radioligand saturation binding on U87 membranes; Bmax falls on GPR23 silencing

T1 sequence (Q99677 whole entry): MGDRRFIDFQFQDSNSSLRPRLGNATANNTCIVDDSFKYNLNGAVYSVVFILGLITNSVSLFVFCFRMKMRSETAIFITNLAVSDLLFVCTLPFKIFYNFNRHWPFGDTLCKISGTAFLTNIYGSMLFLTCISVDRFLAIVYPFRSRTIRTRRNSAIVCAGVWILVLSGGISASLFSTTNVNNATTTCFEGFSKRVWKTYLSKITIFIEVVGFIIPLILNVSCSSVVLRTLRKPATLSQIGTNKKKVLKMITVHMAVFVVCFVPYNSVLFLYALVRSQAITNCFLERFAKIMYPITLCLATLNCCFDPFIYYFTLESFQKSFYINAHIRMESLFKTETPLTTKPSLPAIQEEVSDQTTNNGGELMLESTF

**Q.** `Nc1nc2nc[nH]c2c(=O)[nH]1` [GUA, guanine] was tested. Which Kd did it give?
**A.** Its Kd is 29.4 ± 4.07 nM.
